Reference: ChEMBL document CHEMBL4507256 (2021)

Columns and labels:
[1] = tested on: Tyrosine-protein kinase ABL1 (Homo sapiens), P00519 [Q252H]; conditions: Compound concentration 1000.0 nM
[2] = tested on: Tyrosine-protein kinase ABL1 (Homo sapiens), P00519 [Y253F]; conditions: Compound concentration 1000.0 nM
[3] = molecular target: Tyrosine-protein kinase ABL1 (Homo sapiens) (UniProt P00519); conditions: Compound concentration 1000.0 nM
[4] = molecular target: Activin receptor type-2B (Homo sapiens) (UniProt Q13705); conditions: Compound concentration 1000.0 nM
[5] = molecular target: Atypical kinase COQ8B, mitochondrial (Homo sapiens) (UniProt Q96D53); conditions: Compound concentration 1000.0 nM
[6] = molecular target: ALK tyrosine kinase receptor (Homo sapiens) (UniProt Q9UM73); conditions: Compound concentration 1000.0 nM
[7] = molecular target: Tyrosine-protein kinase Blk (Homo sapiens) (UniProt P51451); conditions: Compound concentration 1000.0 nM
[8] = molecular target: Cyclin-dependent kinase 2 (Homo sapiens) (UniProt P24941); conditions: Compound concentration 1000.0 nM
[9] = molecular target: Cyclin-dependent kinase-like 5 (Homo sapiens) (UniProt O76039); conditions: Compound concentration 1000.0 nM
[10] = molecular target: Dual specificity protein kinase CLK4 (Homo sapiens) (UniProt Q9HAZ1); conditions: Compound concentration 1000.0 nM
[11] = molecular target: Casein kinase I isoform gamma-1 (Homo sapiens) (UniProt Q9HCP0); conditions: Compound concentration 1000.0 nM
[12] = molecular target: Death-associated protein kinase 2 (Homo sapiens) (UniProt Q9UIK4); conditions: Compound concentration 1000.0 nM
[13] = molecular target: Discoidin domain-containing receptor 2 (Homo sapiens) (UniProt Q16832); conditions: Compound concentration 1000.0 nM
[14] = molecular target: Dual specificity tyrosine-phosphorylation-regulated kinase 2 (Homo sapiens) (UniProt Q92630); conditions: Compound concentration 1000.0 nM
[15] = tested on: Epidermal growth factor receptor (Homo sapiens), P00533 [L861Q]; conditions: Compound concentration 1000.0 nM
[16] = molecular target: Receptor tyrosine-protein kinase erbB-4 (Homo sapiens) (UniProt Q15303); conditions: Compound concentration 1000.0 nM
[17] = molecular target: Vascular endothelial growth factor receptor 1 (Homo sapiens) (UniProt P17948); conditions: Compound concentration 1000.0 nM
[18] = molecular target: Tyrosine-protein kinase Fyn (Homo sapiens) (UniProt P06241); conditions: Compound concentration 1000.0 nM
[19] = molecular target: Cyclin-G-associated kinase (Homo sapiens) (UniProt O14976); conditions: Compound concentration 1000.0 nM
[20] = molecular target: Tyrosine-protein kinase HCK (Homo sapiens) (UniProt P08631); conditions: Compound concentration 1000.0 nM
[21] = molecular target: Insulin receptor-related protein (Homo sapiens) (UniProt P14616); conditions: Compound concentration 1000.0 nM
[22] = molecular target: Mast/stem cell growth factor receptor Kit (Homo sapiens) (UniProt P10721); conditions: Compound concentration 1000.0 nM
[23] = tested on: Mast/stem cell growth factor receptor Kit (Homo sapiens), P10721 [D816V]; conditions: Compound concentration 1000.0 nM
[24] = tested on: Mast/stem cell growth factor receptor Kit (Homo sapiens), P10721 [V559D,T670I]; conditions: Compound concentration 1000.0 nM
[25] = tested on: Mast/stem cell growth factor receptor Kit (Homo sapiens), P10721 [V559D,V654A]; conditions: Compound concentration 1000.0 nM
[26] = molecular target: Dual specificity mitogen-activated protein kinase kinase 3 (Homo sapiens) (UniProt P46734); conditions: Compound concentration 1000.0 nM
[27] = molecular target: Hepatocyte growth factor receptor (Homo sapiens) (UniProt P08581); conditions: Compound concentration 1000.0 nM
[28] = molecular target: Serine/threonine-protein kinase MRCK beta (Homo sapiens) (UniProt Q9Y5S2); conditions: Compound concentration 1000.0 nM
[29] = molecular target: Myosin-IIIa (Homo sapiens) (UniProt Q8NEV4); conditions: Compound concentration 1000.0 nM
[30] = molecular target: Serine/threonine-protein kinase Nek4 (Homo sapiens) (UniProt P51957); conditions: Compound concentration 1000.0 nM
[31] = molecular target: Mitogen-activated protein kinase 14 (Homo sapiens) (UniProt Q16539); conditions: Compound concentration 1000.0 nM
[32] = molecular target: Cyclin-dependent kinase 17 (Homo sapiens) (UniProt Q00537); conditions: Compound concentration 1000.0 nM
[33] = molecular target: Phosphatidylinositol 4-phosphate 3-kinase C2 domain-containing subunit beta (Homo sapiens) (UniProt O00750); conditions: Compound concentration 1000.0 nM
[34] = tested on: Phosphatidylinositol 4,5-bisphosphate 3-kinase catalytic subunit alpha isoform (Homo sapiens), P42336 [E542K]; conditions: Compound concentration 1000.0 nM
[35] = molecular target: Phosphatidylinositol 5-phosphate 4-kinase type-2 gamma (Homo sapiens) (UniProt Q8TBX8); conditions: Compound concentration 1000.0 nM
[36] = molecular target: cAMP-dependent protein kinase catalytic subunit beta (Homo sapiens) (UniProt P22694); conditions: Compound concentration 1000.0 nM
[37] = molecular target: Serine/threonine-protein kinase RIO3 (Homo sapiens) (UniProt O14730); conditions: Compound concentration 1000.0 nM
[38] = molecular target: BDNF/NT-3 growth factors receptor (Homo sapiens) (UniProt Q16620); conditions: Compound concentration 1000.0 nM
[39] = molecular target: Serine/threonine-protein kinase WNK2 (Homo sapiens) (UniProt Q9Y3S1); conditions: Compound concentration 1000.0 nM
[40] = molecular target: Serine/threonine-protein kinase WNK4 (Homo sapiens) (UniProt Q96J92); conditions: Compound concentration 1000.0 nM
[41] = molecular target: Sodium-dependent serotonin transporter (Homo sapiens) (UniProt P31645); conditions: Compound concentration 10.0 uM
[42] = molecular target: Histamine H4 receptor (Homo sapiens) (UniProt Q9H3N8); conditions: Compound concentration 10.0 uM
[43] = molecular target: GABA-A receptor; anion channel (Rattus norvegicus) (UniProt O09028+P15431+P18506+P18508+P19969+P20236+P23574+P23576+P28471+P28473+P30191+P62813+P63079+P63138+Q91ZM7+Q9ES14); conditions: Compound concentration 10.0 uM
[44] = molecular target: Alpha-1D adrenergic receptor (Homo sapiens) (UniProt P25100); conditions: Compound concentration 10.0 uM

Sequence of ALK tyrosine kinase receptor (Homo sapiens) (Q9UM73 19-1620 limits assumed): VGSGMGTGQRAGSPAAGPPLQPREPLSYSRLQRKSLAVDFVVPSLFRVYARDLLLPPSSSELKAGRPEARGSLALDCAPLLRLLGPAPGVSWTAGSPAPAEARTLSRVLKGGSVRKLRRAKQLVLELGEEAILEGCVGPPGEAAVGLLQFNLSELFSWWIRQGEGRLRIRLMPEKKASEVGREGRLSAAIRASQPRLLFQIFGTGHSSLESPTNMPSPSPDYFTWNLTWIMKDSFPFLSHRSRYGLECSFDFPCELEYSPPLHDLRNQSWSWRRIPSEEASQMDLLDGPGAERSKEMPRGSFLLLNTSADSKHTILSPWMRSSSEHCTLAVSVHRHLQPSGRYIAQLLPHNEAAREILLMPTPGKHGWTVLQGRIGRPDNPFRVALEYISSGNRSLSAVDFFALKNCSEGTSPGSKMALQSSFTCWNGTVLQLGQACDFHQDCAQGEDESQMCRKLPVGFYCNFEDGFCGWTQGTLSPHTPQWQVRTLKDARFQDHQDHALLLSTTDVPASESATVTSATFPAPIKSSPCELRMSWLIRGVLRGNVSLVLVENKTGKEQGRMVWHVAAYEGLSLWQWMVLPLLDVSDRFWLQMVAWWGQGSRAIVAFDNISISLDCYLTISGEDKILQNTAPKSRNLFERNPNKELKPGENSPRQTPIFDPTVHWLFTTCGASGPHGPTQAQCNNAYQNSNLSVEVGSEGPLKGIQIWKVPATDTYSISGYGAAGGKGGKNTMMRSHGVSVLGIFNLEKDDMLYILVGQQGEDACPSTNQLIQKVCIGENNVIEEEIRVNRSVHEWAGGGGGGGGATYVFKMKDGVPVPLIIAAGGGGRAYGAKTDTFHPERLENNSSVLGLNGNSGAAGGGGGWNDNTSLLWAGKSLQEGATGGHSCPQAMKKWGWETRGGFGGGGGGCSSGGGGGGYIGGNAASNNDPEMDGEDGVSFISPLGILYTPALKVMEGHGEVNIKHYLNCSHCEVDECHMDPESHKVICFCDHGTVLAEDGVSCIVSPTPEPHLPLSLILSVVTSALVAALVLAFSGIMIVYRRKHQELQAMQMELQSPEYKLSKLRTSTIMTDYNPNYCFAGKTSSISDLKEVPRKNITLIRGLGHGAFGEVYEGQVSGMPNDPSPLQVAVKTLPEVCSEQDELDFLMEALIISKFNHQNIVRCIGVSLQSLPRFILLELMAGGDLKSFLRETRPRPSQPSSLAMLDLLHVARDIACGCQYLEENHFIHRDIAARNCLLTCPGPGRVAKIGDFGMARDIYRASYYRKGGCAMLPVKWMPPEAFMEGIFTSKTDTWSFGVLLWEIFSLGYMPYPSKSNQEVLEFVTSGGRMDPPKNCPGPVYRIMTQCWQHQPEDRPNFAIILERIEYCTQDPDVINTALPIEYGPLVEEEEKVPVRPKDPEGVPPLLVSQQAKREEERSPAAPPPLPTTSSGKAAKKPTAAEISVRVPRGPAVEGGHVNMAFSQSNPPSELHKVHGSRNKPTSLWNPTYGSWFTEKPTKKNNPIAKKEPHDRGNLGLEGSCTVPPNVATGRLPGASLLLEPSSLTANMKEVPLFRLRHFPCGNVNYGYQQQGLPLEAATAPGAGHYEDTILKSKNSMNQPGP
Sequence of Tyrosine-protein kinase Blk (Homo sapiens) (P51451 2-505 limits assumed): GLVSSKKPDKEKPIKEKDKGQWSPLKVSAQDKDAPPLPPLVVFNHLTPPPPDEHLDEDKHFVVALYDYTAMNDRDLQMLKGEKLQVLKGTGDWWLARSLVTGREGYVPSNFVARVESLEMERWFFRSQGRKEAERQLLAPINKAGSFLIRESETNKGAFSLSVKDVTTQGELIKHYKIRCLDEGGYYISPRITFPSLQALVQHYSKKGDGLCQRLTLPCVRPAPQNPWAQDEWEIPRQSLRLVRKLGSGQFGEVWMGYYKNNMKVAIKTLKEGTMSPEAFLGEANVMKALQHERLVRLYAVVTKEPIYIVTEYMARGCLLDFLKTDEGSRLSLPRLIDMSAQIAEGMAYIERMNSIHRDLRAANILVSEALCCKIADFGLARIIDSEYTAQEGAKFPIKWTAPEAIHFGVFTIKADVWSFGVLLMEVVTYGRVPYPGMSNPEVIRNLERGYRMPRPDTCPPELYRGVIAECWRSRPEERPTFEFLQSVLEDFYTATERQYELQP
Sequence of Discoidin domain-containing receptor 2 (Homo sapiens) (Q16832 whole entry, the tested form may be a part): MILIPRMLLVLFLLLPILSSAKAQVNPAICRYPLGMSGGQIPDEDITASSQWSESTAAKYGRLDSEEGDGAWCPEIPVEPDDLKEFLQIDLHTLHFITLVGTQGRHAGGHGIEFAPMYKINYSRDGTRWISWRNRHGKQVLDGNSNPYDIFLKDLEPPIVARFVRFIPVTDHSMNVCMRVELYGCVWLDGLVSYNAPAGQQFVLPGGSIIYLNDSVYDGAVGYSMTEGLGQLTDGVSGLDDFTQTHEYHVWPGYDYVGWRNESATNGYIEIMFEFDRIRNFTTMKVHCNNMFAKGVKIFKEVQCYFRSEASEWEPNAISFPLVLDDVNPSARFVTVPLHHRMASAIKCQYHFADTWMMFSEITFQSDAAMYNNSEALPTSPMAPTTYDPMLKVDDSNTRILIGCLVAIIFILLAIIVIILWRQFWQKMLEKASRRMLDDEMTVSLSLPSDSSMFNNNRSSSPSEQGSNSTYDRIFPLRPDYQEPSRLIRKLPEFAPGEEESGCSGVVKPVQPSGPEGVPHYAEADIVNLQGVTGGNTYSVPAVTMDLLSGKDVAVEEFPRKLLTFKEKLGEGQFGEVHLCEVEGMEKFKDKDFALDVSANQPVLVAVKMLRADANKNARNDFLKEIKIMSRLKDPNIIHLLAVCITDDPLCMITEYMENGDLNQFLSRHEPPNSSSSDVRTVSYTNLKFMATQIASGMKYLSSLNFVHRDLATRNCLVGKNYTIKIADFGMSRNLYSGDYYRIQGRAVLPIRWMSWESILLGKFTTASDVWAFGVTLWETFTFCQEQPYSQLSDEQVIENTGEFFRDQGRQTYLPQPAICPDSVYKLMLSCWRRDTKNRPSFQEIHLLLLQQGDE
Sequence of Phosphatidylinositol 4-phosphate 3-kinase C2 domain-containing subunit beta (Homo sapiens) (O00750 whole entry, the tested form may be a part, canonical isoform): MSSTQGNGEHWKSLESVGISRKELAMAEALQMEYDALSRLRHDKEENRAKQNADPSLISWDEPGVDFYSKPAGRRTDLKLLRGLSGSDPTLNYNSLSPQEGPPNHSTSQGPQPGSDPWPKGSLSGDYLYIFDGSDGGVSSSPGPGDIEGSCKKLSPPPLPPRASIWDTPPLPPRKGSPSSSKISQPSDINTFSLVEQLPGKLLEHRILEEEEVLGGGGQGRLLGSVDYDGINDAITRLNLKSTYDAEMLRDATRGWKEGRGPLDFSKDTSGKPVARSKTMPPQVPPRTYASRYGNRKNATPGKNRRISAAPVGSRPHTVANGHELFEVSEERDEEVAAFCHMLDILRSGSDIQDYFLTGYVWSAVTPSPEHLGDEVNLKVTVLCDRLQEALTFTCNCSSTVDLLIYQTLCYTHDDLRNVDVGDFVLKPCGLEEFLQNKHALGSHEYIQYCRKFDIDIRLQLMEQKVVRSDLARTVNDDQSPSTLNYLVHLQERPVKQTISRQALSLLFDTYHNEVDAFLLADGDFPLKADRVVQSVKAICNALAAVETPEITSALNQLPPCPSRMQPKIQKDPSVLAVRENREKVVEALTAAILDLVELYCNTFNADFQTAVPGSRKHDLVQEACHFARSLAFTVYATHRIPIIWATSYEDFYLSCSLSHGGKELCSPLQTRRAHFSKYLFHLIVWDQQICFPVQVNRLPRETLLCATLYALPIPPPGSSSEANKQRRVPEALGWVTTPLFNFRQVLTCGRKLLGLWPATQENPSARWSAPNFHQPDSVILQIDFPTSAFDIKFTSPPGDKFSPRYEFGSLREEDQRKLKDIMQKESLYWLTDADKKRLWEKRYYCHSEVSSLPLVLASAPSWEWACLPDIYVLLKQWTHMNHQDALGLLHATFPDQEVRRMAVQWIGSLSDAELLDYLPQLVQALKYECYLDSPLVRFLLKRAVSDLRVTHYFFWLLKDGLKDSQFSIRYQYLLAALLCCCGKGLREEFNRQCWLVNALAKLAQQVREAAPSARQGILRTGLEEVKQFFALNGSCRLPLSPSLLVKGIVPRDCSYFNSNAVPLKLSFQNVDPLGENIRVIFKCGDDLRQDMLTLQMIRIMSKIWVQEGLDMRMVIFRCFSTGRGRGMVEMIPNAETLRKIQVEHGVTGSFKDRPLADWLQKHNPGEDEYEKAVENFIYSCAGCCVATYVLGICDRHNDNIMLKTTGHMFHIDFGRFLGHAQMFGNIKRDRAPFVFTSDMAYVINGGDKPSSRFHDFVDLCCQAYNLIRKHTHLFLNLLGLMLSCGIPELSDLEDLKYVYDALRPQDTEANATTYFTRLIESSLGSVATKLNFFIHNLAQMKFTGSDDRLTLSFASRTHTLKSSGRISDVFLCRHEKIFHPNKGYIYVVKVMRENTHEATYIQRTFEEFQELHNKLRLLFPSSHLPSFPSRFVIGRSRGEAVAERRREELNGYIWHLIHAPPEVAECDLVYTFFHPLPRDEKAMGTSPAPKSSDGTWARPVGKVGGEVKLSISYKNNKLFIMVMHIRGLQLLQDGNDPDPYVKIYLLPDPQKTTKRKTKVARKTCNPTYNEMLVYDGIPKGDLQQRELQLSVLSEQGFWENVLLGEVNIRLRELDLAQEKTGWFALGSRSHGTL
Sequence of Mitogen-activated protein kinase 14 (Homo sapiens) (Q16539 whole entry): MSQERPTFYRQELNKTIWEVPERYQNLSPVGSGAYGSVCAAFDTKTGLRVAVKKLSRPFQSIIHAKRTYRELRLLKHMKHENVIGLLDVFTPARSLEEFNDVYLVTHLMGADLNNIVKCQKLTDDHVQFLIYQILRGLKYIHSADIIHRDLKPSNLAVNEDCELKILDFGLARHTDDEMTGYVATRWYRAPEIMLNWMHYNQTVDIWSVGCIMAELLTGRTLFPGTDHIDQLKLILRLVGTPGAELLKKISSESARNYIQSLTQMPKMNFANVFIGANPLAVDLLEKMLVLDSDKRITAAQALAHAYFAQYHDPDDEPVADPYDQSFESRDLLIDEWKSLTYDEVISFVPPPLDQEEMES

CCC(=N\O)/C(C)=C/c1ccc(F)cc1 [A-079]
inactive: residual activity [1] 90% | residual activity [2] 80% | residual activity [3] 66% | residual activity [4] 91% | residual activity [5] 84% | residual activity [6] 87% | residual activity [7] 87% | residual activity [8] 82% | residual activity [9] 82% | residual activity [10] 100% | residual activity [11] 99% | residual activity [12] 97% | residual activity [13] 91% | residual activity [14] 94% | residual activity [15] 60% | residual activity [16] 66% | residual activity [17] 87% | residual activity [18] 100% | residual activity [19] 99% | residual activity [20] 100% | residual activity [21] 83% | residual activity [22] 100% | residual activity [23] 87% | residual activity [24] 95% | residual activity [25] 73% | residual activity [26] 94% | residual activity [27] 88% | residual activity [28] 100% | residual activity [29] 100% | residual activity [30] 83% | residual activity [31] 100% | residual activity [32] 90% | residual activity [33] 92% | residual activity [34] 100% | residual activity [35] 83% | residual activity [36] 89% | residual activity [37] 78% | residual activity [38] 66% | residual activity [39] 80% | residual activity [40] 100% | inhibition [41] 13% | inhibition [42] 9.43% | inhibition [43] 21.5% | inhibition [44] -4.38%

CCC(=N\O)/C(C)=C/c1ccc(F)c(C)c1 [A-226]
inactive: residual activity [1] 100% | residual activity [2] 100% | residual activity [3] 100% | residual activity [4] 100% | residual activity [5] 83% | residual activity [6] 97% | residual activity [7] 91% | residual activity [8] 96% | residual activity [9] 100% | residual activity [10] 97% | residual activity [11] 100% | residual activity [12] 85% | residual activity [13] 100% | residual activity [14] 87% | residual activity [15] 68% | residual activity [16] 98% | residual activity [17] 100% | residual activity [18] 72% | residual activity [19] 96% | residual activity [20] 80% | residual activity [21] 100% | residual activity [22] 91% | residual activity [23] 94% | residual activity [24] 100% | residual activity [25] 100% | residual activity [26] 100% | residual activity [27] 100% | residual activity [28] 69% | residual activity [29] 94% | residual activity [30] 67% | residual activity [31] 100% | residual activity [32] 99% | residual activity [33] 55% | residual activity [34] 54% | residual activity [35] 85% | residual activity [36] 100% | residual activity [37] 100% | residual activity [38] 100% | residual activity [39] 100% | residual activity [40] 78% | inhibition [41] 8.28% | inhibition [42] 10.8% | inhibition [43] 20.3% | inhibition [44] -3.74%
